The text below walks through data of patent EP0386243A1, “PLATINUM (II) COMPLEXES” (SAGAMI CHEMICAL RESEARCH CENTER, priority 1987, dated 1989).

Like-named read-outs stand apart in the source and are kept apart here. Bounds are passed on as bounds.

Data set [1] deals with Mouse lymphatic leukemia tumor cells, P-388. The data set is described as follows: Growth suppressing effect on mouse lymphatic leukemia tumor cells P-388 (48 h culture, Coulter counter cell count). It counts as cell-based. The settings on record: P-388 cells 5 x 10^4 cells/ml, 37°C, no more than 0.5% DMSO. How it is done: The number of suspended cells was counted with a Coulter counter and ICso values were determined from dose response curves that were constructed for the respective compounds on the basis of percent growth inhibition as compared to the absence of the compounds.

A short description of data set [2]: Toxicity: S-GPT (serum transaminase) and BUN (blood urea nitrogen) levels. It counts as in vivo.

Consider `CC(C(=O)C(=O)[O-])c1ccc(C(=O)[O-])cc1.CC(C(=O)C(=O)[O-])c1ccc(C(=O)[O-])cc1.C[NH2+]C.C[NH2+]C.NC1CCCCC1N.[Pt+2]` (stereo not drawn) [Compound No. 33, bis{β-methyl(p-carboxyphenylpyruvato)}(trans-d,ℓ-1,2-diaminocyclohexane)platinum (II) bis(dimethylammonium) salt], for which the IC50 in data set [1] worked out at 0.024 µg/mL; in data set [1] (read-out: IC50), 28 nM.

With “bis(β-methylphenylpyruvato)ethylenediamine platinum (II) [Compound No. 17]”, the IC50 in data set [1] (read-out: IC50) was more than 10000 nM.

As to “bis{β-methyl(p-isobutylphenylpyruvato)}(trans-Q-1,2-diaminocyclohexane)platinum (II) [Compound No. 14]”, in data set [2] (indicator of hepatotoxicity), the “S-GPT (serum transaminase)” value was “did not cause any appreciable increase”. Moreover, in data set [2] (indicator of nephrotoxicity), the “BUN (blood urea nitrogen)” value is on record as “did not cause any appreciable increase”.

A word on the IC50: it is the concentration needed to halve the response being measured.
